Experimental findings from US6908930B2, “4-substituted 7-AZA-indolin-2-ones and their use as protein kinase inhibitors” (Sugen, Inc., priority 1999, dated 2005) are described below.

Where a name gives a salt, the structure may show the parent alone. A value given as a limit tells only on which side of the number the result lay.

For one test, the target named is T1, EGFR (Homo sapiens, UniProt P00533).
T1 construct: A431 […] cell lysate is stored at −80° C; host or cells: A431 cell lysate
The experiment in a line: Assay for modulation of EGFR activity (ELISA). Type of test: biochemical. To be noted: for IC50: read-out: bio EGFR IC50. How it is done: Using the following reagents, supplies, and method, the ability of compounds of the invention to modulate the in vitro activity of EGFR can be readily determined in an ELISA.
A431 […] cell lysate is stored at −80° C.
ATP/MnCl2 phosphorylation mix is prepared by adding 300 μL of 1.0 mM ATP and […] of 1M MnCl2 to 9.2 mL of dH2O and mixing. Ten mL of phosphorylation mix is enough for about 6 assay plates. Note that the mixture should be made fresh and kept on ice immediately before use, and that although the preferred ATP is fresh from powder stock, any remaining stock solution of ATP may be frozen at −20° C. in small aliquots to be used at a later time.
Coat Corning 96 well ELISA plates with 0.5 μg per well with SUMO1 in a volume of 100 μL PBS overnight, at 4° C. Remove unbound SUMO1 from wells by inverting plate to remove liquid. Wash 1× with distilled H2O by filling wells. Pat the plate on a paper towel to remove excess liquid.
Add 150 μL of Blocking Buffer to each well. Incubate for 30 minutes at room temperature, with shaking. Wash plate 3× with deionized water, then once with TBST. Pat plate on a paper towel to remove excess liquid and bubbles.
Dilute lysate in PBS (7 μg lysate/[…]) and add 100 μL of diluted lysate to each well. Shake at room temperature for 60 minutes. Wash 1× with distilled H2O by filling wells. Pat the plate on a paper towel to remove excess liquid.
Add 120 μL TBST to ELISA plate containing captured EGFR.
Dilute drugs/extracts 1:10 (unless specified otherwise) in TBST in 96-well polypropylene plates. (i.e., 10 μL compound+90 μL TBST). Add 13.5 μL diluted drugs/extracts to ELISA plate. […] Incubate for 30 minutes while shaking at room temperature.
Approximately 150 μL final volume in well with 3 uM ATP/5 mM MnCl2 final concentration in well. Incubate 5 minutes while shaking. Note that this is a timed event. It is critical that ATP/MnCl2 phosphorylates the receptor for only 5 minutes. It is best to add the ATP/MnCl2 with an automated 96 place pipettor workstation, then 5 minutes later stop the reaction with EDTA using the same workstation. Alternatively, addition can be performed using a 12 channel pipettor 1 row at a time, leaving 20 seconds between each row so that the reaction may be stopped with EDTA exactly 5 minutes later (this depends on the number of plates being phosphorylated in one batch). Shake between each addition.
[…] This is done using either the same work station as above, or the same timing method employed with the 12 channel pipettor. After the EDTA has been added, shake for 1 minute. Wash 4× with deionized water, twice with TBST.
Add 100 μL per well of anti-phosphotyrosine (1:3000 dilution in TBST). Incubate 30-45 minutes at room temperature, with shaking. Wash 1× with distilled H2O by filling wells. Pat the plate on a paper towel to remove excess liquid.
Incubate 30 minutes at room temperature, with shaking. Wash 1× with distilled H2O by filling wells. Pat the plate on a paper towel to remove excess liquid.
Add 100 μL of ABTS/H2O2 solution to each well. Incubate 5 to 10 minutes while shaking. Remove any bubbles. If necessary stop reaction with the addition of 100 μL of 0.2M HCl per well.
(§1) Read assay on Dynatech MR7000 ELISA reader.
(In general: In an ELISA, binding on a coated surface is turned into a signal by an enzyme label.)

Another test deals with T2, PDGFR (Homo sapiens, UniProt P09619).
T2 construct: expressed in transfected cells; host or cells: NIH3T3
T2 sequence (P09619 33-1106, species assumed): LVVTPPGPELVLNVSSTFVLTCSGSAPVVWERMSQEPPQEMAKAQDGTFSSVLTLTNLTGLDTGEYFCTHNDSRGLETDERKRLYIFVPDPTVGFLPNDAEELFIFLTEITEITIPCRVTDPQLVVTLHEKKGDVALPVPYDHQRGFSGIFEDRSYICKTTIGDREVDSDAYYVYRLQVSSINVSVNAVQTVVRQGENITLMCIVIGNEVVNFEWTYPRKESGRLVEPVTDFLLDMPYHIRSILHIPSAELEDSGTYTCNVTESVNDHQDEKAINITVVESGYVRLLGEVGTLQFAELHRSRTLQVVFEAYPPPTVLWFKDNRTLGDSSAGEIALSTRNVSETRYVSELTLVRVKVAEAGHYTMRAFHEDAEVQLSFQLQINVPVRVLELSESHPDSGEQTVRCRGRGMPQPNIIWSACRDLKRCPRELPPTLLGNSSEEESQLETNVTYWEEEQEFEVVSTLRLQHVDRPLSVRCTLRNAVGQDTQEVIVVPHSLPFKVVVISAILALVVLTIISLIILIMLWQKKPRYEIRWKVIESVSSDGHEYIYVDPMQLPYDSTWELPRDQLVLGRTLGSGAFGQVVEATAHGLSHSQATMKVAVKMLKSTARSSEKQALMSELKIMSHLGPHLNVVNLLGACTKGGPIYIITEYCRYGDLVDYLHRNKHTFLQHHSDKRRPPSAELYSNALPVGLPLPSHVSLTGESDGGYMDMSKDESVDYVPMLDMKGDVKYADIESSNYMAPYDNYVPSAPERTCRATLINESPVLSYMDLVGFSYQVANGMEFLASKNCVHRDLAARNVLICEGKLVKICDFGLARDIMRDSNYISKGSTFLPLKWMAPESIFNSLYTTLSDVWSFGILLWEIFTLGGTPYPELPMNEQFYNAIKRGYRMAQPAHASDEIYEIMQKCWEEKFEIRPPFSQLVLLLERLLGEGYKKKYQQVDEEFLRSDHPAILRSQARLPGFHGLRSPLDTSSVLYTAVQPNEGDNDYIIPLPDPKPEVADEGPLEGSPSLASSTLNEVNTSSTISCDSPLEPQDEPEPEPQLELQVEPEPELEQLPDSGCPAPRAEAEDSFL
The experiment in a line: Assay for modulation of PDGFR activity (ELISA). Type of test: biochemical. To be noted: for IC50: read-out: bio PDGFR IC50. How it is done:
Using the following reagents, supplies, and methods, the ability of the compounds of the invention to modulate the in vitro activity of the PDGFR can be readily determined in an enzyme-linked immunosorbent assay (ELISA).
Monoclonal anti-PDGFR antibody (28D4C10) is stored at −20° C. in 50 mL tubes prior to use.
Lysates from PDGFR-β expressing NIH3T3 cells are obtained and stored at −80° C. in 1 mL aliquots. PDGFR-β expression in eukaryotic cells is well known in the art. Lysates are prepared by the following method. Place carrier dishes in ice trays, and after cooling, remove the media and replace with ice cold PBS. Remove the PBS and repeat. […] Take up lysate with a pipettor and add to a 30 mL centrifuge tube on ice. Vortex the tubes for 30-60 seconds and then centrifuge for 10 minutes at 7000 rpm in a J-20 rotor which has been precooled to below 0° C. Recover the supernatants and combine them in a 250 mL tube and place on ice. Perform protein determination to measure the total quantity of protein per mL of solution. Aliquot the lysate into 1 mL fractions and store at −80° C.
Coat Corning 96 well ELISA plates with 0.5 μg per well 28D4C10 antibody in a volume of 100 μl PBS overnight, at 4° C. and remove unbound antibody, 28D4C10, from wells by inverting plate to remove liquid. Wash 1× with distilled H2O by filling wells. Pat the plate on a paper towel to remove excess liquid.
Add 150 μL of Blocking Buffer to each well. Incubate for 30 minutes at room temperature, with shaking and wash plate 3× with deionized water, then once with TBST. Pat plate on a paper towel to remove excess liquid and bubbles
Dilute lysate in PBS (10 mg lysate/100 μL PBS). Add 100 μL of diluted lysate to each well. Shake at room temperature for 60 min. Wash plate 3× with deionized water, then once with TBST. Pat plate on a paper towel to remove excess liquid and bubbles.
Add 80 μL Kinase Buffer to ELISA plate containing captured PDGFR.
Dilute drugs/extracts 1:10 (unless specified otherwise) in TBS+10% DMSO in 96-well polypropylene plates. (i.e., 10 μL compound+90 μL (TBS+10% DMSO)). Add 10 μL diluted drugs/extracts to ELISA plate. […] Incubate for 30 minutes while shaking at room temperature.
After 30 minutes stop reaction with addition of 10 μL of 200 mM EDTA pH 8.0 for 20 mM final in well. Wash 4× with deionized water, twice with TBST.
Incubate 30-45 minutes at room temperature, with shaking. Wash plate 3× with deionized water, then once with TBST. Pat plate on a paper towel to remove excess liquid and bubbles.
Incubate 30 minutes at room temperature with shaking. Wash plate 3× with deionized water, then once with TBST. Pat plate on a paper towel to remove excess liquid and bubbles.
Add 100 μL of ABTS/H2O2 solution to each well. Incubate 10 to 30 minutes while shaking. Remove any bubbles. If necessary stop reaction with the addition of 100 μL of 0.2M HCl per well
as §1

T1 sequence (P00533 25-1210): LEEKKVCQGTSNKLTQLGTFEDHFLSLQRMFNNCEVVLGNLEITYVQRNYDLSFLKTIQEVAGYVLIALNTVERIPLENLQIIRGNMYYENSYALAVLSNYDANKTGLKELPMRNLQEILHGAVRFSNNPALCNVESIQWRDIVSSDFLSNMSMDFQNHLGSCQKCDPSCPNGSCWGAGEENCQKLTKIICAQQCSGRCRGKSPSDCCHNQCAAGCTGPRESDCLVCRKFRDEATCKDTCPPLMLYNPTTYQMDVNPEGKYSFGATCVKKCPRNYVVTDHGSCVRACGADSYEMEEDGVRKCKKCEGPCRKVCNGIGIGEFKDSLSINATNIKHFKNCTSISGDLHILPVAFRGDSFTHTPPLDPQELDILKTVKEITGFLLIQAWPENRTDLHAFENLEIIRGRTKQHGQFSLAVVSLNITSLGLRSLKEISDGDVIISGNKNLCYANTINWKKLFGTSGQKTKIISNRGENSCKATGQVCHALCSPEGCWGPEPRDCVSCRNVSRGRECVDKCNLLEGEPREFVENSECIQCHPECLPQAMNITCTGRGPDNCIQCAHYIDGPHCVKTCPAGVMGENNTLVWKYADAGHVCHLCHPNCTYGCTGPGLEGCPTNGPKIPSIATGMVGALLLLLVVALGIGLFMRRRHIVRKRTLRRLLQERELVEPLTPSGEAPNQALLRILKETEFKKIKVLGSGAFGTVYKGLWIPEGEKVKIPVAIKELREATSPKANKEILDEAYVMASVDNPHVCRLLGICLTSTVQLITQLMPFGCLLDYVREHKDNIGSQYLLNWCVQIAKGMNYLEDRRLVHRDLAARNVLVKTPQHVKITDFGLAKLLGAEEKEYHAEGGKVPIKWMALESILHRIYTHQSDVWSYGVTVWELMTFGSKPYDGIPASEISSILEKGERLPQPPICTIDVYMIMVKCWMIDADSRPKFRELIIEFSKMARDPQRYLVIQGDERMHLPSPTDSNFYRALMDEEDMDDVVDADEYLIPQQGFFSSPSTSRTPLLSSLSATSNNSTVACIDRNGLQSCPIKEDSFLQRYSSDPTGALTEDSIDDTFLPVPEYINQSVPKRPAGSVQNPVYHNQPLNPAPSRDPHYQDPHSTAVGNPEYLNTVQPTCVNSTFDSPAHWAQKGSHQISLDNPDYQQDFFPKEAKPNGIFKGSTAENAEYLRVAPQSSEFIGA

What is called IC50 is the concentration that gives 50% inhibition. As for `Cc1cc(C(=O)NCCN2CCOCC2)[nH]c1C=C1C(=O)Nc2nccc(Nc3ccc(F)c(Cl)c3)c21` [Formula 3, 5-[4-(3-CHLORO-4-FLUORO-PHENYLAMINO)-2-OXO-1,2-DIHYDRO-PYRROLO[2,3-B]PYRIDIN-3-YLIDENEMETHYL]-4-METHYL-1H-PYRROLE-2-CARBOXYLIC ACID (2-MORPHOLIN-4-YL-ETHYL)-AMIDE], the IC50 at EGFR is 0.51 µM; at PDGFR, more than 100 µM.

As for `Cc1cc(C(=O)NCCN2CCOCC2)[nH]c1C=C1C(=O)Nc2ncnc(Nc3ccc(F)c(Cl)c3)c21` [Formula 4, 5-[4-(3-CHLORO-4-FLUORO-PHENYLAMINO)-6-OXO-6,7-DIHYDRO-PYRROLO[2,3-D]PYRIMIDIN-5-YLIDENEMETHYL]-4-METHYL-1H-PYRROLE-2-CARBOXYLIC ACID (2-MORPHOLIN-4-YL-ETHYL)-AMIDE HYDROCHLORIDE], at PDGFR, the IC50 was more than 100 µM.

`O=C1Nc2ncnc(N3CCCCC3)c2C1=Cc1ccc(C(=O)NCCN2CCOCC2)[nH]1` [Formula 5, 5-(6-OXO-4-PIPERIDIN-1-YL-6,7-DIHYDRO-PYRROLO[2,3-D]PYRIMIDIN-5-YLIDENEMETHYL)-1H-PYRROLE-2-CARBOXYLIC ACID (2-MORPHOLIN-4-YL-ETHYL)-AMIDE]: the IC50 is more than 20 µM on EGFR and more than 100 µM on PDGFR.

For `Cc1cc(C(=O)NCCN2CCOCC2)[nH]c1C=C1C(=O)Nc2ncnc(Nc3ccc4c(ccn4Cc4ccccc4)c3)c21.Cl` [Formula 6, 5-[4-(1-BENZYL-1H-INDOL-5-YLAMINO)-6-OXO-6,7-DIHYDRO-PYRROLO[2,3-D]PYRIMIDIN-5-YLIDENEMETHYL]-4-METHYL-1H-PYRROLE-2-CARBOXYLIC ACID (2-MORPHOLIN-4-YL-ETHYL)-AMIDE HYDROCHLORIDE], the “inhibition of EGFR (in words)” value at EGFR (hydrochloride salt) is “inhibits EGFR at very low concentrations”. The IC50 on EGFR is 0.001 µM; at PDGFR it was more than 100 µM. For the same molecule, at PDGFR (hydrochloride salt), the “effect on the activity of PDGFR (in words)” value is listed as “relatively little effect on the activity of PDGFR”.

Take `Cc1[nH]c(C=C2C(=O)Nc3ncnc(Nc4ccc(F)c(Cl)c4)c32)c(C)c1CCCN1CCOCC1` [Formula 7, 4-(3-CHLORO-4-FLUORO-PHENYLAMINO)-5-[3,5-DIMETHYL-4-(3-MORPHOLIN-4-YL-PROPYL)-1H-PYRROL-2-YLMETHYLENE]-5,7-DIHYDRO-PYRROLO[2,3-D]PYRIMIDIN-6-ONE HYDROCHLORIDE]: the IC50 on EGFR was 0.16 µM; at PDGFR, 86 µM.

Regarding `Cc1nc[nH]c1C=C1C(=O)Nc2ncnc(Nc3ccc(F)c(Cl)c3)c21` [Formula 8], the 50% inhibitory concentration (IC50) on EGFR is 0.06 µM; at PDGFR, 16.4 µM.

In the case of `Cc1cc(C)c(C=C2C(=O)Nc3ncnc(Nc4ccc(F)c(Cl)c4)c32)[nH]1` [Formula 9], the IC50 at EGFR was 0.04 µM; at PDGFR, more than 100 µM.

For the molecule `Cc1cc(C(=O)NCCN2CCOCC2)[nH]c1C=C1C(=O)Nc2ncnc(N3CCN(C)CC3)c21` [Formula 10, 4-METHYL-5-[4-(4-METHYL-PIPERAZIN-1-YL)-6-OXO-6,7-DIHYDRO-PYRROLO[2,3-D]PYRIMIDIN-5-YLIDENEMETHYL]-1H-PYRROLE-2-CARBOXYLIC ACID (2-MORPHOLIN-4-YL-ETHYL)-AMIDE], the results for the IC50 on EGFR and on PDGFR were more than 20 µM and more than 100 µM, respectively.

Take `Cc1nc[nH]c1C=C1C(=O)Nc2ncnc(N3CCN(C)CC3)c21` [Formula 11]: the IC50 at EGFR is more than 20 µM; at PDGFR, 28.1 µM.

Consider `O=C1Nc2ncnc(Nc3ccc4c(ccn4Cc4ccccc4)c3)c2C1=Cc1ccc(C(=O)NCCN2CCOCC2)[nH]1` [Formula 12, 5-[4-(1-BENZYL-1H-INDOL-5-YLAMINO)-6-OXO-6,7-DIHYDRO-PYRROLO[2,3-D]PYRIMIDIN-5-YLIDENEMETHYL]-1H-PYRROLE-2-CARBOXYLIC ACID (2-MORPHOLIN-4-YL-ETHYL)-AMIDE HYDROCHLORIDE], for which the results for the IC50 at EGFR and at PDGFR were 0.004 µM and more than 100 µM, respectively.

With `O=C1Nc2ncnc(N3CCOCC3)c2C1=Cc1ccc(C(=O)NCCN2CCOCC2)[nH]1` [Formula 13, 5-(4-MORPHOLIN-4-YL-6-OXO-6,7-DIHYDRO-PYRROLO[2,3-D]PYRIMIDIN-5-YLIDENEMETHYL)-1H-PYRROLE-2-CARBOXYLIC ACID (2-MORPHOLIN-4-YL-ETHYL)-AMIDE], the figures for the IC50 on EGFR and at PDGFR were 19.1 µM and more than 100 µM, respectively.

Regarding `Cc1nc[nH]c1C=C1C(=O)Nc2ncnc(N3CCOCC3)c21` [Formula 14], the IC50 at EGFR was more than 20 µM; at PDGFR, more than 100 µM.

Regarding `O=C1Nc2ncnc(Nc3ccc(F)c(Cl)c3)c2C1=Cc1ccc(C(=O)NCCN2CCOCC2)[nH]1` [Formula 15, 5-[4-(3-CHLORO-4-FLUORO-PHENYLAMINO)-6-OXO-6,7-DIHYDRO-PYRROLO[2,3-D]PYRIMIDIN-5-YLIDENEMETHYL]-1H-PYRROLE-2-CARBOXYLIC ACID (2-MORPHOLIN-4-YL-ETHYL)-AMIDE], the figures for the IC50 on EGFR and at PDGFR were 0.02 µM and more than 100 µM, respectively.

For `C#Cc1cccc(Nc2ncnc3c2C(=Cc2ccc(C(=O)NCCN4CCOCC4)[nH]2)C(=O)N3)c1` [Formula 16, 5-[4-(3-ETHYNYL-PHENYLAMINO)-6-OXO-6,7-DIHYDRO-PYRROLO[2,3-D]PYRIMIDIN-5-YLIDENEMETHYL]-1H-PYRROLE-2-CARBOXYLIC ACID (2-MORPHOLIN-4-YL-ETHYL)-AMIDE HYDROCHLORIDE], the IC50 was 0.1 µM on EGFR and more than 20 µM at PDGFR.

`C#Cc1cccc(Nc2ncnc3c2C(=Cc2[nH]c(C(=O)NCCN4CCOCC4)cc2C)C(=O)N3)c1` [Formula 17, 5-[4-(3-ETHYNYL-PHENYLAMINO)-6-OXO-6,7-DIHYDRO-PYRROLO[2,3-D]PYRIMIDIN-5-YLIDENEMETHYL]-4-METHYL-1H-PYRROLE-2-CARBOXYLIC ACID (2-MORPHOLIN-4-YL-ETHYL)-AMIDE]: the IC50 at EGFR is 0.02 µM; on PDGFR, more than 20 µM.

For the molecule `C#Cc1cccc(Nc2ncnc3c2C(=Cc2[nH]c(C)c(CCCN4CCOCC4)c2C)C(=O)N3)c1` [Formula 18], the figures for the IC50 at EGFR and at PDGFR were 0.18 µM and 15.3 µM, respectively.
